Holding throughout (assay type): functional
For test [1], the species on record is Oryctolagus cuniculus. Kind of test: Inhibitory activity against PAF (4e-10 M) induced aggregation of rabbit platelet at 3E-5 M concentration.
The species entered for test [2] is Oryctolagus cuniculus. Kind of test: Inhibitory activity against PAF (4e-10 M) induced aggregation of rabbit platelet at 1.5E-5 M concentration.
Test [3] is filed under the species Oryctolagus cuniculus. Kind of test: Inhibitory concentration against PAF (8E-10M) induced aggregation of rabbit platelet at 2.1E-4 M concentration.
Test [4] is filed under the species Oryctolagus cuniculus. Briefly: Inhibitory activity against PAF (4e-10 M) induced aggregation of rabbit platelet at 1.5E-6 M concentration.
The species named for test [5] is Oryctolagus cuniculus. Kind of test: Inhibitory activity against PAF (4e-10 M) induced aggregation of rabbit platelet at 2.1E-4 M concentration.
The species entered for test [6] is Oryctolagus cuniculus. Briefly: Inhibitory activity against PAF (4e-10 M) induced aggregation of rabbit platelet at 7.5E-5 M concentration.
The species named for test [7] is Oryctolagus cuniculus. Briefly: Inhibitory activity against PAF (8E-10M) induced aggregation of rabbit platelet at 2.1E-4 M concentration.

Results on 1 molecule are retold here after ChEMBL document CHEMBL1139563, “Synthesis of all-trans arachidonic acid and its effect on rabbit platelet aggregation” (Bioorg Med Chem Lett, 2005).

Molecules are shown by their SMILES.

The term Inhibition denotes the relative decrease from the control value, in per cent. A higher Inhibition goes with strong suppression. As usually defined, the IC50 is the concentration needed to halve the response being measured. Low readings indicate inhibition by little substance, high ones a need for much substance. As to `CCCCC/C=C\C/C=C\C/C=C\C/C=C\CCCC(=O)O` [ARACHIDONIC ACID], the Inhibition is on record as 24% in the test filed under Oryctolagus cuniculus [1]; 6% in the test filed under Oryctolagus cuniculus [2]; 0% in the test listed under Oryctolagus cuniculus [4]; 100% in the test listed under Oryctolagus cuniculus [5]; 61% in the test filed under Oryctolagus cuniculus [6]; 100% in the test listed under Oryctolagus cuniculus [7]. Also, the IC50 in the test listed under Oryctolagus cuniculus [3] was roughly 60 µM.
